According to PubChem BioAssay AID2060351 (Molecular Pharmacology Branch, DTP, NCI, 2025):

System: 521955-158-R7-J2-PDC spheroids, viability % test/control
Test: Anticancer human tumor 521955-158-R7-J2-PDC patient-derived pancreatic carcinoma cell line growth inhibition [TAK]
Conditions: spheroids with HUVEC and MSC; for IC50: curve of first compound; for viability, T/C: stronger effect = lower value
How it was run: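 Tumor cells were grown as spheroids with HUVEC and hMSC (60:25:15) and treated with targeted agents combined with TAK-243 or ipatasertib. Drugs were tested in half-log steps down from near the clinical Cmax, or from 10 microM where Cmax was unknown.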

[1] = second compound 0.3 µM, first compound 0.0316 µM
[2] = second compound 0.3 µM, first compound 0.1 µM
[3] = second compound 0.3 µM, first compound 0.316 µM
[4] = second compound 0.3 µM, first compound 1 µM
[5] = second compound 0.949 µM, first compound 0.0316 µM
[6] = second compound 0.949 µM, first compound 0.1 µM
[7] = second compound 0.949 µM, first compound 0.316 µM
[8] = second compound 0.949 µM, first compound 1 µM
[9] = second compound 3 µM, first compound 0.0316 µM
[10] = second compound 3 µM, first compound 0.1 µM
[11] = second compound 3 µM, first compound 0.316 µM
[12] = second compound 3 µM, first compound 1 µM
[13] = second compound 9.49 µM, first compound 0.0316 µM
[14] = second compound 9.49 µM, first compound 0.1 µM
[15] = second compound 9.49 µM, first compound 0.316 µM
[16] = second compound 9.49 µM, first compound 1 µM
[17] = second compound 30 µM, first compound 0.0316 µM
[18] = second compound 30 µM, first compound 0.1 µM
[19] = second compound 30 µM, first compound 0.316 µM
[20] = second compound 30 µM, first compound 1 µM
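Also: spheroids exposed to compound for 7 days before readout.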
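For viability, T/C in this document: 100% = DMSO vehicle control wells.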

## COc1c(OCCCN2CCOCC2)ccc2c3n(c(=NC(=O)c4cnc(N)nc4)nc12)CCN3 + CC(C)NCC(C(=O)N1CCN(c2ncnc3c2C(C)CC3O)CC1)c1ccc(Cl)cc1
Second compound 0.3 µM
  IC50: 21.9 nM
Second compound 0.949 µM
  IC50: 22 nM
Second compound 3 µM
  IC50: 7.21 nM
Second compound 9.49 µM
  IC50: 6.2 nM
Second compound 30 µM
  IC50: 3.38 nM
Second compound 0.3 µM, first compound 0.00316 µM
  viability, T/C: 102%
Second compound 0.3 µM, first compound 0.01 µM
  viability, T/C: 67.6%
[1]
  viability, T/C: 40.9%
[2]
  viability, T/C: 27.5%
[3]
  viability, T/C: 13.7%
[4]
  viability, T/C: 11%
Second compound 0.949 µM, first compound 0.00316 µM
  viability, T/C: 81%
Second compound 0.949 µM, first compound 0.01 µM
  viability, T/C: 66.5%
[5]
  viability, T/C: 43.1%
[6]
  viability, T/C: 19.6%
[7]
  viability, T/C: 13.7%
[8]
  viability, T/C: 9.02%
Second compound 3 µM, first compound 0.00316 µM
  viability, T/C: 55%
Second compound 3 µM, first compound 0.01 µM
  viability, T/C: 51.1%
[9]
  viability, T/C: 29.2%
[10]
  viability, T/C: 24.9%
[11]
  viability, T/C: 13%
[12]
  viability, T/C: 10.4%
Second compound 9.49 µM, first compound 0.00316 µM
  viability, T/C: 64.3%
Second compound 9.49 µM, first compound 0.01 µM
  viability, T/C: 36.3%
[13]
  viability, T/C: 31%
[14]
  viability, T/C: 21.7%
[15]
  viability, T/C: 14.3%
[16]
  viability, T/C: 12.2%
Second compound 30 µM, first compound 0.00316 µM
  viability, T/C: 50.4%
Second compound 30 µM, first compound 0.01 µM
  viability, T/C: 40.6%
[17]
  viability, T/C: 27.8%
[18]
  viability, T/C: 19.8%
[19]
  viability, T/C: 17.1%
[20]
  viability, T/C: 11.5%

## Cc1nc(NC(=O)N2CCCC2C(N)=O)sc1-c1ccnc(C(C)(C)C(F)(F)F)c1 (stereo not given) + CC(C)NCC(C(=O)N1CCN(c2ncnc3c2C(C)CC3O)CC1)c1ccc(Cl)cc1
Second compound 0.3 µM
  IC50: 5650 nM
Second compound 0.949 µM
  IC50: 3050 nM
Second compound 3 µM
  IC50: 1320 nM
Second compound 9.49 µM
  IC50: 384 nM
Second compound 30 µM
  IC50: 280 nM
[1]
  viability, T/C: 106%
[2]
  viability, T/C: 106%
[3]
  viability, T/C: 83.6%
[4]
  viability, T/C: 62.2%
Second compound 0.3 µM, first compound 3.16 µM
  viability, T/C: 69.5%
Second compound 0.3 µM, first compound 10 µM
  viability, T/C: 38.6%
[5]
  viability, T/C: 84%
[6]
  viability, T/C: 82.6%
[7]
  viability, T/C: 64.6%
[8]
  viability, T/C: 54.7%
Second compound 0.949 µM, first compound 3.16 µM
  viability, T/C: 60.5%
Second compound 0.949 µM, first compound 10 µM
  viability, T/C: 33.6%
[9]
  viability, T/C: 90%
[10]
  viability, T/C: 79%
[11]
  viability, T/C: 54.6%
[12]
  viability, T/C: 57.3%
Second compound 3 µM, first compound 3.16 µM
  viability, T/C: 45.4%
Second compound 3 µM, first compound 10 µM
  viability, T/C: 30.8%
[13]
  viability, T/C: 92.6%
[14]
  viability, T/C: 70.1%
[15]
  viability, T/C: 48%
[16]
  viability, T/C: 43%
Second compound 9.49 µM, first compound 3.16 µM
  viability, T/C: 36.7%
Second compound 9.49 µM, first compound 10 µM
  viability, T/C: 27.8%
[17]
  viability, T/C: 93.7%
[18]
  viability, T/C: 79.7%
[19]
  viability, T/C: 44.6%
[20]
  viability, T/C: 43.2%
Second compound 30 µM, first compound 3.16 µM
  viability, T/C: 39.7%
Second compound 30 µM, first compound 10 µM
  viability, T/C: 25.6%
